Measured values taken from PubChem BioAssay (NCI).
Where “and” joins values, the source holds several entries; their conditions need not be identical. Equal values may be shown once.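 A five-concentration, 48-hour dose response in 96-well plates underlies each endpoint, interpolated linearly between surrounding concentrations. Abbreviation: GI50, concentration required for 50% inhibition of growth. TGI: total growth inhibition.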

Columns and labels:
Assay in all cases: NCI tumour cell line growth inhibition, 48 h
MALME-3M melanoma = test system: MALME-3M melanoma
SNB-75 CNS = test system: SNB-75 CNS
HT29 colon = test system: HT29 colon
MOLT-4 leukemia = test system: MOLT-4 leukemia
SK-MEL-2 melanoma = test system: SK-MEL-2 melanoma
SNB-19 CNS = test system: SNB-19 CNS
BT-549 breast = test system: BT-549 breast
SW-620 colon = test system: SW-620 colon
MCF7 breast = test system: MCF7 breast
SN12C renal = test system: SN12C renal

Nc1ccn([C@@H]2S[C@H](CO)[C@@H](O)[C@@H]2F)c(=O)n1
GI50 (MALME-3M melanoma): 1.52 µM
TGI (MALME-3M melanoma): > 100 µM
GI50 (SNB-75 CNS): 2.73 µM
TGI (SNB-75 CNS): > 100 µM
GI50 (HT29 colon): 0.178 µM
TGI (HT29 colon): > 100 µM
GI50 (MOLT-4 leukemia): 0.0304 µM
TGI (MOLT-4 leukemia): > 100 µM
GI50 (SK-MEL-2 melanoma): > 100 µM
TGI (SK-MEL-2 melanoma): > 100 µM
GI50 (SNB-19 CNS): 0.0581 µM
TGI (SNB-19 CNS): > 100 µM
GI50 (BT-549 breast): 1.74 µM
TGI (BT-549 breast): > 100 µM
GI50 (SW-620 colon): 0.252 µM
TGI (SW-620 colon): > 100 µM
GI50 (MCF7 breast): 0.0545 µM
TGI (MCF7 breast): > 100 µM
GI50 (SN12C renal): 0.0405 µM
TGI (SN12C renal): > 100 µM

CCc1ccc(C2=NN(c3ccc(S(C)(=O)=O)cc3)C(=O)CC2)cc1
GI50 (MALME-3M melanoma): 3.58 µM
TGI (MALME-3M melanoma): > 82.2 µM
GI50 (SNB-75 CNS): 1.31 µM
TGI (SNB-75 CNS): 6.93 µM
GI50 (HT29 colon): 0.411 µM
TGI (HT29 colon): 13.4 µM
GI50 (MOLT-4 leukemia): 1.53 µM
TGI (MOLT-4 leukemia): 17.5 µM
GI50 (SK-MEL-2 melanoma): 1.24 µM
TGI (SK-MEL-2 melanoma): 98.4 µM
GI50 (SNB-19 CNS): 8.82 µM
TGI (SNB-19 CNS): > 100 µM
GI50 (BT-549 breast): 0.513 µM
TGI (BT-549 breast): 16.3 µM
GI50 (SW-620 colon): 0.56 µM
TGI (SW-620 colon): > 100 µM
GI50 (MCF7 breast): 3.04 µM
TGI (MCF7 breast): > 91.6 µM
GI50 (SN12C renal): 7.34 µM
TGI (SN12C renal): > 100 µM

Cn1c(CC(O)c2nc3ccccc3n2C)nc2ccccc21 (stereo not drawn)
TGI (MALME-3M melanoma): > 35.5 µM
TGI (SNB-75 CNS): > 100 µM
TGI (HT29 colon): > 54.3 µM
TGI (MOLT-4 leukemia): > 27.9 µM
TGI (SK-MEL-2 melanoma): > 58.5 µM
TGI (SNB-19 CNS): > 87.7 µM
TGI (BT-549 breast): > 63.2 µM
TGI (SW-620 colon): > 47 µM
TGI (MCF7 breast): > 47.2 µM
TGI (SN12C renal): > 57.9 µM

CN(c1ccc(NC(=O)NCCN2CCOCC2)cc1)c1ccnc(Nc2ccc(CS(C)(=O)=O)cc2)n1
GI50 (MALME-3M melanoma): > 25 µM
TGI (MALME-3M melanoma): > 25 µM
GI50 (SNB-75 CNS): > 25 µM
TGI (SNB-75 CNS): > 25 µM
GI50 (HT29 colon): > 25 µM
TGI (HT29 colon): > 25 µM
GI50 (MOLT-4 leukemia): > 25 µM
TGI (MOLT-4 leukemia): > 25 µM
GI50 (SK-MEL-2 melanoma): > 25 µM
TGI (SK-MEL-2 melanoma): > 25 µM
GI50 (SNB-19 CNS): > 25 µM
TGI (SNB-19 CNS): > 25 µM
GI50 (BT-549 breast): > 25 µM
TGI (BT-549 breast): > 25 µM
GI50 (SW-620 colon): > 25 µM
TGI (SW-620 colon): > 25 µM
GI50 (MCF7 breast): > 21.7 µM
TGI (MCF7 breast): > 25 µM
GI50 (SN12C renal): > 25 µM
TGI (SN12C renal): > 25 µM

N=C(N)c1ccc(OCCCCCOc2ccc(C(=N)N)cc2)cc1
GI50 (MALME-3M melanoma): 1.81 µM
TGI (MALME-3M melanoma): 8.4 µM and 35.3 µM
TGI (SNB-75 CNS): 33.1 µM and 18.3 µM and > 100 µM
GI50 (HT29 colon): 5.05 µM and 15.8 µM and 35.5 µM
TGI (HT29 colon): > 50 µM and 60.4 µM and > 100 µM
GI50 (MOLT-4 leukemia): 23.3 µM and 12 µM and 28.3 µM
TGI (MOLT-4 leukemia): > 50 µM and 51.8 µM and > 100 µM
GI50 (SK-MEL-2 melanoma): 7.11 µM
TGI (SK-MEL-2 melanoma): 16.9 µM and 47.1 µM and 22.4 µM
GI50 (SNB-19 CNS): 2.79 µM
TGI (SNB-19 CNS): 24.5 µM and 54.6 µM and 32.3 µM
GI50 (BT-549 breast): 6.65 µM and 3.41 µM and 11.1 µM
TGI (BT-549 breast): 14.1 µM and 16 µM and 25.3 µM
GI50 (SW-620 colon): 5.17 µM and 8.95 µM and 18.1 µM
TGI (SW-620 colon): > 50 µM and 57.7 µM and 86.9 µM
GI50 (MCF7 breast): 2.59 µM
TGI (MCF7 breast): 14.4 µM and 25.9 µM and 28.5 µM
GI50 (SN12C renal): 2.02 µM
TGI (SN12C renal): 34.2 µM and 25 µM and 24.7 µM

Oc1c(I)cc(Cl)c2cccnc12
GI50 (MALME-3M melanoma): 3.97 µM and 16.5 µM
TGI (MALME-3M melanoma): 21.6 µM and 46.5 µM
GI50 (SNB-75 CNS): 4.42 µM
TGI (SNB-75 CNS): > 100 µM
GI50 (HT29 colon): 11.3 µM and 6.1 µM
TGI (HT29 colon): > 100 µM
GI50 (MOLT-4 leukemia): 3.37 µM and 3.12 µM
TGI (MOLT-4 leukemia): 9.93 µM and 21.4 µM
GI50 (SK-MEL-2 melanoma): 11 µM and 14.7 µM
TGI (SK-MEL-2 melanoma): > 100 µM and 41.3 µM
GI50 (SNB-19 CNS): 3.71 µM and 9.32 µM
TGI (SNB-19 CNS): > 100 µM
GI50 (BT-549 breast): 3.27 µM and 23.1 µM
TGI (BT-549 breast): 8.99 µM and 65.3 µM
GI50 (SW-620 colon): 4.05 µM and 3.73 µM
TGI (SW-620 colon): > 100 µM and 32.5 µM
GI50 (MCF7 breast): 3.24 µM and 6.36 µM
TGI (MCF7 breast): 41.3 µM and > 100 µM
GI50 (SN12C renal): 3.27 µM and 4.82 µM
TGI (SN12C renal): > 100 µM and 26.3 µM

Cc1cc2c(cc1C)[n+](=O)c(C(=O)/C=C/c1ccccc1[N+](=O)[O-])c(C)n2[O-]
TGI (MALME-3M melanoma): > 96.7 µM
TGI (SNB-75 CNS): 41.1 µM
TGI (HT29 colon): > 100 µM
TGI (MOLT-4 leukemia): > 100 µM
TGI (SK-MEL-2 melanoma): 55.2 µM
TGI (SNB-19 CNS): 42.3 µM
TGI (BT-549 breast): > 100 µM
TGI (SW-620 colon): > 100 µM
TGI (MCF7 breast): > 46.4 µM
TGI (SN12C renal): > 100 µM

N#Cc1cccc(C2C3=C(COC3=O)N(CCO)c3cc4c(cc32)CCC4)c1 (stereo not drawn)
GI50 (MALME-3M melanoma): 0.173 µM
TGI (MALME-3M melanoma): > 50 µM
GI50 (SNB-75 CNS): 0.0393 µM
GI50 (HT29 colon): 0.16 µM
TGI (HT29 colon): > 18.8 µM
GI50 (MOLT-4 leukemia): 0.203 µM
TGI (MOLT-4 leukemia): > 50 µM
GI50 (SK-MEL-2 melanoma): 0.319 µM
TGI (SK-MEL-2 melanoma): > 44.5 µM
GI50 (SNB-19 CNS): 0.18 µM
TGI (SNB-19 CNS): > 50 µM
GI50 (BT-549 breast): 0.182 µM
TGI (BT-549 breast): 5.35 µM
GI50 (SW-620 colon): 0.153 µM
TGI (SW-620 colon): > 50 µM
GI50 (MCF7 breast): 0.0411 µM
TGI (MCF7 breast): > 50 µM
GI50 (SN12C renal): 0.261 µM
TGI (SN12C renal): > 50 µM

Cc1n(Cc2ccc3ccccc3n2)cc[n+]1Cc1ccc2ccccc2c1
GI50 (MALME-3M melanoma): 0.394 µM
TGI (MALME-3M melanoma): 2.37 µM
GI50 (SNB-75 CNS): 0.322 µM
TGI (SNB-75 CNS): 3.39 µM
GI50 (HT29 colon): 0.454 µM
TGI (HT29 colon): 9.61 µM
GI50 (MOLT-4 leukemia): 0.948 µM
TGI (MOLT-4 leukemia): 10.6 µM
GI50 (SK-MEL-2 melanoma): 0.522 µM
TGI (SK-MEL-2 melanoma): 2.99 µM
GI50 (SNB-19 CNS): 0.438 µM
TGI (SNB-19 CNS): 12.1 µM
GI50 (BT-549 breast): 0.64 µM
TGI (BT-549 breast): 4.1 µM
GI50 (SW-620 colon): 1.82 µM
TGI (SW-620 colon): 13.3 µM
GI50 (MCF7 breast): 0.526 µM
TGI (MCF7 breast): 6.08 µM
GI50 (SN12C renal): 0.518 µM
TGI (SN12C renal): 11 µM

C=CC(C)(O)CCC1C(=C)C(O)CC2C(C)(C)CCCC12C (stereo not drawn)
TGI (MALME-3M melanoma): 34.8 µM
TGI (SNB-75 CNS): > 100 µM
TGI (HT29 colon): 33 µM
TGI (MOLT-4 leukemia): 31.2 µM
TGI (SK-MEL-2 melanoma): 31.1 µM
TGI (SNB-19 CNS): 35.6 µM
TGI (BT-549 breast): 32.4 µM
TGI (SW-620 colon): 43.5 µM
TGI (MCF7 breast): 60 µM
TGI (SN12C renal): 33 µM

O=C(Nc1ccc(Cl)c(C(F)(F)F)c1)C(=O)c1c(O)c2ccccc2oc1=O
TGI (MALME-3M melanoma): > 100 µM
TGI (SNB-75 CNS): > 100 µM
TGI (HT29 colon): > 100 µM
TGI (MOLT-4 leukemia): > 100 µM
TGI (SK-MEL-2 melanoma): > 100 µM
TGI (SNB-19 CNS): > 100 µM
TGI (BT-549 breast): > 100 µM
TGI (SW-620 colon): > 100 µM
TGI (MCF7 breast): > 100 µM
TGI (SN12C renal): > 100 µM
